Converted amounts (≈) assume the structure as drawn. Like-named read-outs stand apart in the source and are kept apart here. Marks after values point to notes of the source that are not given here.

Series [1] is described as follows: Stability of mixed-ligand Cu(II) complexes in solution (ESI-MS, 1H DOSY NMR). Type of series: physicochemical. The conditions noted are these: 1H DOSY NMR in D2O, 298K. How it is done: NMR tubes with a 5-mm internal diameter were used. […] Diffusion coefficients were measured by incrementing the amplitude of the field gradient pulse over 32 steps (0.5-30 G/cm). The bipolar gradient duration and the diffusion time were optimized to 2.4 ms and 14.9 ms, respectively. The intensities were fitted to an exponential decay using the SimFit program within the Topspin software to provide estimates of the diffusion constant.
The formation of Cu(ASP)2(AL)2(H2O) is also observed by us from the ESI-MS of ASP-7 and ASP-8 in aqueous solution. Indeed, for mononuclear Cu(II) species, the coordination of anionic API and neutral AL to copper in solution has been confirmed by the mass spectra.
Since structures of binuclear Cu(II) complexes are analogous, as a model, ASP-3 was investigated by using NMR diffusion measurement for stability studies. Diffusion-Ordered Spectroscopy […]) methods^11 are based on pulsed-field gradient spin-echo NMR experiments. […] The small peak on the left at 8.160 ppm is assigned to one proton of 3-Br-Py by comparing the ^1H NMR spectra of ASP-3 and ASP-3/3-Br-Py mixture. Peaks in the range of 7-8 ppm are due to the peak overstocking of aspirin and 3-Br-Py aromatic protons. […] The diffusion coefficient for ASP-3 was 3.819×10^−9 m^2/s. […]

Series [2] is described as follows: Measurement of P: partition coefficient in 1-octanol/water system. Conditions: 25° C., observed, for aspirin and caffeine the parent drug itself.
A short description of series [3]: Measurement of solubility in water, octanol saturated water and water saturated octanol. The conditions noted are these: for logSR (Swo/Sow): log solubility ratio; for logSR (Swo/Sow) / Sow / Swo / Sw: 25° C.; for Sow: solubility in octanol saturated water; for Swo: solubility in water saturated octanol; for Sw: solubility in water.
Procedure: Solubilities were determined at 25° C. in water (Sw), octanol saturated water (Sow), water saturated octanol (Swo). An excess of the sample was added to 15 ml of each solvent and stirred vigorously at 25° C. for 8 hours. […] The supernatant was collected. The supernatant samples after appropriate dilutions with respective solvent were analyzed by UV spec using a standard plot of solute in the same medium. Solubility of copper acetate in water saturated octanol was determined by extracting 200 ml saturated wo solution into 20 ml ow.
For series [4] the following is noted: water, cited from earlier work.

For `Brc1cccnc1.Brc1cccnc1.CC(=O)Oc1ccccc1C(=O)[O-].CC(=O)Oc1ccccc1C(=O)[O-].CC(=O)Oc1ccccc1C(=O)[O-].CC(=O)Oc1ccccc1C(=O)[O-].[Cu+2].[Cu+2]` [ASP-3, Cu2(ASP)4(3-Br-Py)2], the diffusion coefficient in series [1] is 3.819×10^−9 m^2/s. The logP of complex in series [2] is recorded as 0.1066(58). In series [3], the “logSR (Swo/Sow)” value is −0.09583, the Sow is recorded as 1.566(5) mg/ml, the Swo is 1.256(15) mg/ml and the Sw was 1.564(3) mg/ml.
Consider `CC(=O)Oc1ccccc1C(=O)O` [Aspirin(ASP), acetylsalicylic acid, reference compound], for which the Sw in series [4] (from reference Koch et al. J. Pharm. Sci. 1978) was 4.600^b mg/ml. In the series “physchem”, the logP came out at 1.32. In addition, in series [3], the “logSR (Swo/Sow)” value stood at 1.101 and the Swo is reported as 54.16(94) mg/ml. The thermodynamic solubility at 8 h in series [3] (octanol saturated water, 25 °C, water, thermodynamic from solid) was determined as 4300 µg/mL (≈ 23.8 mM).
In the case of “Cu2(CH3COO)4(H2O)2 [MC-1, reference compound]”, the Sw in series [4] (from MSDS) is 72^a mg/ml. Also, the logP of complex in series [2] was −2.222(553). Further, in series [3], the “logSR (Swo/Sow)” value is on record as −2.807 and the Swo is 0.1161(438) mg/ml.
For the compound “Cu(ASP)2(Isonicotinamide)2(AcCN)2 [ASP-6]”, the logP of complex in series [2] was −0.4647(274). For the same compound, in series [3], the “logSR (Swo/Sow)” value is listed as −0.4980, the Sow is given as 5.767(7) mg/ml, the Swo is recorded as 1.832(17) mg/ml and the Sw was 9.315(10) mg/ml.
As to “Cu(SAS)2(Isonicotinamide)2(AcCN)2/3 [SAS-7]”, in series [2], the logP of complex is 0.03802(967). Also, in series [3], the “logSR (Swo/Sow)” value stood at 0.4241, the Sow is on record as 0.2890(10) mg/ml, the Swo is on record as 0.8344(165) mg/ml and the Sw is on record as 0.3143(9) mg/ml.

Usually logP stands for the decadic logarithm of the partition coefficient of the neutral form, usually between octanol and water. Higher therefore signals higher lipophilicity. What is called thermodynamic solubility is the concentration in solution at equilibrium with solid.
